In patent US12397059B2, “Compounds and methods for the treatment and prevention of fibrotic disease states and cancer” (Purdue Research Foundation, priority 2019, dated 2025):
Entries after “also recorded” stand apart in the source; their conditions may differ.

Tests used:
[1] = system: M2-induced THP-1 macrophages; assay: Secreted CCL18 and IL-1β in THP-1 supernatants by ELISA; format: cell-based, human
Description: FIGS. 6A-6D show graphical data representative of various marker levels measured from M2-induced THP-1 macrophages treated with different concentrations of drugs for 48 hours (FIGS. 6A and 6B) or for 2 hours, then displaced with fresh medium and cultured for the remaining 46 hours (FIGS. 6C and 6D). In both cases, cell supernatants were collected and secreted CCL18 protein and IL-1β was detected by ELISA.
Further, to ensure that the above mRNA analyses accurately reflected the levels of profibrotic cytokines produced by IL-4, IL-6 plus IL-13 stimulated THP-1 cells, the concentrations of CCL18 and IL-1β polypeptides in the THP-1 supernatants were quantitated by ELISA assay.
(§1) CCL18 and IL-1β were quantified in induced THP-1 cell supernatants using a human DuoSet ELISA Development System (R&D Systems Europe, Abingdon, UK; #DY394-05) and an IL-1 beta Human ELISA Kit (Thermo Fisher Scientific, Waltham, MA; #BMS224-2) as described by manufactures.

[2] = Stability during incubation in culture media; format: physicochemical; details: 37° C. in the culture media, 48 hours
Description: Indeed, Compound 1B retained the original structure after 48 hours incubation.

[3] = system: BM-induced experimental pulmonary fibrosis in mice; assay: BM-induced pulmonary fibrosis: markers in bronchoalveolar lavage cells/fluid (qPCR, ELISA); format: in vivo
Description: Fresh water and folate-deficient diet were freely available.
Bronchoalveolar lavage fluid (BALF) was then analyzed to determine how the targeted TLR7 agonist works. BALF samples were centrifuged at 1500 rpm for 5 min at 4° C. and the supernatant was aliquoted and stored at −80° C. for cytokine/chemokine analyses. Cell pellets were resuspended and cultured in pre-warmed RPMI 1640 medium for 2 hours and then washed 3× with pre-warmed PBS prior to harvesting for qPCR assay. The right lung was then tied with a nylon string and used for subsequent analysis of hydroxyproline content. The left lung was inflated with 1 ml PBS using the inserted syringe and transferred to 10% formalin solution for subsequent histological analyses.
as §1, with “manufactures. BALF samples were analyzed for mouse IFN-γ using ELISA MAX™ Deluxe (Biolegend, San Diego, CA; #430804).” for “manufactures.”

[4] = system: BM-induced experimental pulmonary fibrosis in mice
Description: Studies were also performed to determine if macrophages in pulmonary fibrotic lungs might be specifically targeted with folate-linked drugs in vivo. […] (The BM model is widely regarded to be helpful in terms of enabling mechanistic investigations relevant to fibrogenesis in an in vivo context.)
More specifically, eight-week-old C57BL6 male mice from Charles River (average weight 22 g to 25 g) were housed under pathogen-free conditions at room temperature (22° C.) under a 12 hours light-dark cycle. Mice were placed on a folate deficient chow (Envigo Teklad Global Rat Food Pellets) for 1 week prior to the BM or PBS instillation. Fresh water and folate-deficient diet were freely available. All animal procedures were approved by the Purdue Animal Care and Use Committee in accordance with National Institute of Health guidelines.
Thereafter, the mice were anesthetized with ketamine/xylazine and the necks of the mice were shaved using hair remover lotion and then sterilized with 70% alcohol. A small incision was made on the neck to visualize the trachea. Mice were positioned at a 75-degree angle and injected intratracheally with 100 μL sterile PBS or BM (Cayman Chemicals, Ann Arbor, MI; #13877) dissolved in PBS (0.75 mg/kg) using a 1 cc syringe with 26 G needle. Body weights were monitored every other day throughout the experiment.
Lobes of the right lung collected above were weighed, placed in a pressure-tight vial (Supelco Inc., Bellefonte, PA; #27003), and hydrolyzed with 6N HCl (10 ml/g, v/w) in a sand bath at 120° C. for 3.5 hours. The hydrolyzed solution was cooled at 4° C. for 15 min and transferred to a 1.5 ml Eppendorf tube prior to centrifugation at 12,000 rcf for 15 min at 4° C. Supernatant was carefully collected, aliquoted and used for hydroxyproline (HYP) analysis.
For the subsequent HYP analysis, 10 μl of sample was transferred into a 96-well plate and neutralized with 10 μl of 5.3 M sodium hydroxide solution. Isopropanol (40 μl) was then added to each well followed by 20 μl of oxidation buffer and the mixture was incubated on a shaker at room temperature for 5 min. Analytical reagent (260 μl) was added, and the plate was incubated on a shaker at room temperature for 30 seconds and incubated immediately at 60° C. for 25 min. The absorbance was measured at 560 nm (A560) within 15 min. All reagents were prepared according to a previously reported protocol.
For histological analysis of the lung sections, fixed lungs (see above) were embedded in paraffin, sectioned and stained with hematoxylin-eosin (H&E), Masson's trichrome or F3 (anti-mouse FRβ antibody). Tissue sections were examined in a blinded manner by a licensed pathologist. More than 90×10^6 cells were quantified per section using Aperio-Image Scope (Leica Biosystems, Wetzlar, DE).
For this, BM-treated mice were intravenously injected every other day beginning on day 10 with either vehicle (3% DMSO in PBS) or Compound 1B (see FIG. 8A). […] In BM-induced experimental pulmonary fibrosis in mice, inflammation is known to persist for about 9-10 days after BM installation. Because, inflammation to fibrosis switch happens in this model approximately day 9 to day 14, and profibrotic markers start appearing at about day 10, dosing began on day 10 (FIG. 8A).
Two doses were given every other day till day 21. The individual doses on a day are separated by 6 hours to prevent any “tolerance” to TLR agonists. Mice were then sacrificed on day 21 and subjected immediately to bronchoalveolar lavage followed by resection of the lungs for immunohistochemistry and quantitation of collagen and hydroxyproline.

[5] = system: M2-induced human monocyte-derived macrophages; assay: Reprogramming of M2-induced human monocyte-derived macrophages with FA-glucosamine competition; format: cell-based; details: 100 nM, 2 hours then 46 hours without drug
Description: Changes in both sets of cytokines were inhibited by blockade of unoccupied folate receptors with excess FA-glucosamine (2+46 h, competition).

[6] = incubated continuously for 48 hours, ELISA
[7] = BALF cells day 21, i.v. every other day from day 10

Q: What does the source list for CCCCc1nc2c(N)nc3ccccc3c2n1CC(C)(C)OC(=O)OCCSSCC(NC(=O)CCC(NC(=O)c1ccc(NCc2cnc3nc(N)[nH]c(=O)c3n2)cc1)C(=O)O)C(=O)O (centres unmarked) [Compound 1B]?
A: reduction of secreted CCL18 and IL-1β, comparison of the two agonists ([1]; drug exposure limited to 2 hours, then 46 hours fresh medium): superior; secreted CCL18 protein [1, 6]: reductions; secreted IL-1β [1, 6]: reductions; stability during incubation [2]: remained stable; CD86 transcripts (antifibrotic marker, qPCR) ([3]; BALF cells day 21): upregulated; also recorded: elevated; IRAK-4 ([3]; BALF cells day 21): upregulated; also recorded: upregulation; Arg1 (profibrotic marker, qPCR) [3, 7]: downregulated; also recorded: suppressed; MMP9 (profibrotic marker, qPCR) [3, 7]: downregulated; also recorded: suppressed; TIMP 3 (profibrotic marker, qPCR) [3, 7]: downregulated; also recorded: suppressed; IFN-γ concentration (ELISA of lavage fluid) ([3]; day 21): upregulated; also recorded: elevated; total number of BALF cells ([3]; different doses): decreased in a dose-dependent manner; lung histology with increasing dose ([4]; 1, 3, 10 nmol): lung histology improved; order of efficacy on lung hydroxyproline content ([4]; day 21): 10 nmol/mouse>3 nmol/mouse>1 nmol/mouse>0 nmol/mouse; anti-fibrotic response, lung sections stained DAPI, anti-F4/80, anti-CD206 ([4]; differences between treated groups): robust anti-fibrotic response; collagen stain, Masson's trichrome ([4]; tail vein injection): strongly suppressed; lung histology, H&E staining ([4]; treated beginning on day 10): lung architecture that resembles that of healthy mice; downregulation of biomarkers in presence of excess FA-glucosamine (competitor) [5]: blocked
